# Like-named read-outs stand apart in the source and are kept apart here.
# How the values were obtained:
# EGFR del19/C797S = EGFR del19/C797S (Homo sapiens, UniProt P00533, C797S/DEL746-750); assay: Biochemical EGFR kinase assay (Lance Ultra TR-FRET), double mutant del19/C797S
# Procedure, shortened: (§1)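 Step 1: compound in kinase buffer, 0.003–10 μM. Step 2: kinase reaction 1 h at room temperature. Step 4: TR-FRET read at 615/665 nm; IC50 calculated.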
# EGFR L858R/T790M/C797S = EGFR L858R/T790M/C797S (Homo sapiens, UniProt P00533, C797S/L858R/T790M); assay: Biochemical EGFR kinase assay (Lance Ultra TR-FRET), triple mutant L858R/T790M/C797S
# Procedure, shortened: as §1
# EGFR del19/T790M/C797S = EGFR del19/T790M/C797S (Homo sapiens, UniProt P00533, C797S/DEL746-750/T790M); assay: Biochemical EGFR kinase assay (Lance Ultra TR-FRET), triple mutant del19/T790M/C797S
# Procedure, shortened: as §1
# EGFR L858R/C797S = EGFR L858R/C797S (Homo sapiens, UniProt P00533, C797S/L858R); assay: Biochemical EGFR kinase assay (Lance Ultra TR-FRET), double mutant L858R/C797S
# Procedure, shortened: as §1
# EGFR wildtype (WT) = EGFR wildtype (WT) (Homo sapiens, UniProt P00533); assay: Biochemical EGFR kinase assay (Lance Ultra TR-FRET), wildtype
# Procedure, shortened: as §1
# [1] = Km ATP, read-out: IC50 del19/C797S, Km ATP
# [2] = Km ATP, read-out: IC50 L858R/T790M/C797S, Km ATP
# [3] = Km ATP, read-out: IC50 del19/T790M/C797S, Km ATP
# [4] = Km ATP, read-out: IC50 L858R/C797S, Km ATP
# [5] = Km ATP, read-out: IC50 WT, Km ATP
# [6] = IC50 del19/C797S (nM) 100 μM ATP, 100 μM ATP
# [7] = Km ATP, read-out: IC50 del19/C797S (nM) Km ATP
# [8] = IC50 L858R/T790M/C797S (nM) 100 μM ATP, 100 μM ATP
# [9] = Km ATP, read-out: IC50 L858R/T790M/C797S (nM) Km ATP
# [10] = IC50 del19/T790M/C797S (nM) 100 μM ATP, 100 μM ATP
# [11] = Km ATP, read-out: IC50 del19/T790M/C797S (nM) Km ATP
# [12] = IC50 L858R/C797S (nM) 100 μM ATP, 100 μM ATP
# [13] = Km ATP, read-out: IC50 L858R/C797S (nM) Km ATP
# [14] = IC50 WT (nM) 100 μM ATP, 100 μM ATP
# [15] = Km ATP, read-out: IC50 WT (nM) Km ATP
# Sequence of EGFR L858R/C797S (P00533 25-1210 C797S/L858R): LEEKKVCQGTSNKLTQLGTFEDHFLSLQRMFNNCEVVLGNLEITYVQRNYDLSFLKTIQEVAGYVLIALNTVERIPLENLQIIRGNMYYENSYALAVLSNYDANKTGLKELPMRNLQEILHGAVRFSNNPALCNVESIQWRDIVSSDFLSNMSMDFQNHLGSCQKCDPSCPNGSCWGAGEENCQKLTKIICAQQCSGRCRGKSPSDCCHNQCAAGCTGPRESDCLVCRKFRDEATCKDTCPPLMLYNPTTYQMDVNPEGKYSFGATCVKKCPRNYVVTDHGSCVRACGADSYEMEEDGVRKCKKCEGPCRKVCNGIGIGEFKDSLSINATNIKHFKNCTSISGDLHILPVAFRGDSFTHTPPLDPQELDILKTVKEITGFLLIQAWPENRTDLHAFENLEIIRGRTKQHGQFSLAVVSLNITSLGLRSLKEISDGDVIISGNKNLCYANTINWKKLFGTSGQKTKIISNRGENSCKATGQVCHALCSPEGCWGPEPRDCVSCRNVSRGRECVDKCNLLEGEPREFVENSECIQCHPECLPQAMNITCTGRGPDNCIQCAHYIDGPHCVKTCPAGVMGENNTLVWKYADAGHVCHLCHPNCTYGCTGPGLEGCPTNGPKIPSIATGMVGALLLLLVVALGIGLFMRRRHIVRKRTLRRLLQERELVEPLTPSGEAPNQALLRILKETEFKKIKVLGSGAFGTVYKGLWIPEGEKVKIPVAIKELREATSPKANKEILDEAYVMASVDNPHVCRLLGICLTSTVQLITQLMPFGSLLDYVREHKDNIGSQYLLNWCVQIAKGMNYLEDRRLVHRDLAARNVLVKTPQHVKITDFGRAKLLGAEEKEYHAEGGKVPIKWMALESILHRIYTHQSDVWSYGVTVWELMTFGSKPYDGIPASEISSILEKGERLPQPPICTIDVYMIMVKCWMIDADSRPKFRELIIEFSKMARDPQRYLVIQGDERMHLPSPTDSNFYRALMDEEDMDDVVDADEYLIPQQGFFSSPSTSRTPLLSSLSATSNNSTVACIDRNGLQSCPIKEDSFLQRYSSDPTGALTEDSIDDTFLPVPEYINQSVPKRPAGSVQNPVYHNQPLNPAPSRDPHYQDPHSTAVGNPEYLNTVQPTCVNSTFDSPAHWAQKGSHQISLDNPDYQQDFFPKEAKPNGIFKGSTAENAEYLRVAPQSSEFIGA
# Sequence of EGFR wildtype (WT) (P00533 25-1210): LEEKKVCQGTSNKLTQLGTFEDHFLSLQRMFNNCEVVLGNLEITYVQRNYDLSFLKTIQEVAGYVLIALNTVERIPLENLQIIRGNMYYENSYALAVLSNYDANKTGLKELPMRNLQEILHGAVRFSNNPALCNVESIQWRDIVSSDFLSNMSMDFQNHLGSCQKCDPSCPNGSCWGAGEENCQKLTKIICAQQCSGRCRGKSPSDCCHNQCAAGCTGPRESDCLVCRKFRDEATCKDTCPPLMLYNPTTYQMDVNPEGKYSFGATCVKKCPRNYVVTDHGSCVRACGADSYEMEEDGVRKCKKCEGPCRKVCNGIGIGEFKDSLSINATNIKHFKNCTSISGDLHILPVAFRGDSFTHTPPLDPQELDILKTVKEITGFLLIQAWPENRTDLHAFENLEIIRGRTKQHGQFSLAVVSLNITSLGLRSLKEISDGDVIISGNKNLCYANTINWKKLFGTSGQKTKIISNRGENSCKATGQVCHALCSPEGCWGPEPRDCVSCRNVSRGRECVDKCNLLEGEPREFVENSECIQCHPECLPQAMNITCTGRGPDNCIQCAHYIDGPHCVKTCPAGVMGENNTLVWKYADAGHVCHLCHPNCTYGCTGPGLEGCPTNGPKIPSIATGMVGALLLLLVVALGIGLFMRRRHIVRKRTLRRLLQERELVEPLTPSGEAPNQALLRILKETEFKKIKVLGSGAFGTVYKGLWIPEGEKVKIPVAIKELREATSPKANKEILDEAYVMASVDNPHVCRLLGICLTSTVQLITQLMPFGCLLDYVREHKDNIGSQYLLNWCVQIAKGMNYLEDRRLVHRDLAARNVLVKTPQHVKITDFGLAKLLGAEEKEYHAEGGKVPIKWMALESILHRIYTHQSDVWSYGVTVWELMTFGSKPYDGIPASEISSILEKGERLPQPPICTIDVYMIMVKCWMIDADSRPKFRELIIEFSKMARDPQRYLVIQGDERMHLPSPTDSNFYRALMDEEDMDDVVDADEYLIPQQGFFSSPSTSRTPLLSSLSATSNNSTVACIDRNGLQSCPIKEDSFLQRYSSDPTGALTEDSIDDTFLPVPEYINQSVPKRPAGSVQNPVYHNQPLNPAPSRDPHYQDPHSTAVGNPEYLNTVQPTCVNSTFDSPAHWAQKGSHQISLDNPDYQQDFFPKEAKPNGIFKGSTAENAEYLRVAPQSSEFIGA
# Sequence of EGFR L858R/T790M/C797S (P00533 25-1210 T790M/C797S/L858R): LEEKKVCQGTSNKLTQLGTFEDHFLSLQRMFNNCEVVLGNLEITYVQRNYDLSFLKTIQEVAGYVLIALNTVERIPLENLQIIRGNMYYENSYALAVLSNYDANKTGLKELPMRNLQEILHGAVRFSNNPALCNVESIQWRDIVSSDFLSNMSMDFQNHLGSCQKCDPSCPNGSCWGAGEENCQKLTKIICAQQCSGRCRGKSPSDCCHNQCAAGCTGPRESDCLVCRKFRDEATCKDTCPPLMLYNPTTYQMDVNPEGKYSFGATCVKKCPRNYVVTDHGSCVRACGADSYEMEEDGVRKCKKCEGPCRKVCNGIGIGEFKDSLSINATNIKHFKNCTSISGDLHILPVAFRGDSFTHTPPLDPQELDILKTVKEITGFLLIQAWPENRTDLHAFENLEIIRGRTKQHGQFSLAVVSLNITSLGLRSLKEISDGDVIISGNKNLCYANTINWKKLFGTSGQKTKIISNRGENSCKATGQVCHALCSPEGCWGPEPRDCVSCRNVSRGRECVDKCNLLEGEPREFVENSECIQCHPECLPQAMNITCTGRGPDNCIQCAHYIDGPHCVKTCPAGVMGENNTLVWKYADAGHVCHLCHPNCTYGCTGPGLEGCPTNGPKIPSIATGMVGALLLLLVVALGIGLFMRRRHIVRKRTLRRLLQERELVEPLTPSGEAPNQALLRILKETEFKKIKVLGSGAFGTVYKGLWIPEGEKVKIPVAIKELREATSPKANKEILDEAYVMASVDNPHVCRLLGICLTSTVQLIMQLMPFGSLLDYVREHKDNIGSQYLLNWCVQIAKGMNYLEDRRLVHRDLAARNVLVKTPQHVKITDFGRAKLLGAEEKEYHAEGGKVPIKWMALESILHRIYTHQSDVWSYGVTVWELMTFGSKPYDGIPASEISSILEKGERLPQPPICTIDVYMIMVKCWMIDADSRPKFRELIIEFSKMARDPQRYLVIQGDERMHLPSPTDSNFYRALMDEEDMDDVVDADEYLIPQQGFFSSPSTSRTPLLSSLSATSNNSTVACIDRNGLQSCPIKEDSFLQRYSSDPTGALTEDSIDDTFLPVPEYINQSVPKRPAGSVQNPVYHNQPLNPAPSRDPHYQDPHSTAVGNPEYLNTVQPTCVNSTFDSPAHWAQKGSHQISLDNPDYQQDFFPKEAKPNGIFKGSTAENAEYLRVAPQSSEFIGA
# Sequence of EGFR del19/T790M/C797S (P00533 with tags, fused parts or gaps DEL746-750/T790M/C797S): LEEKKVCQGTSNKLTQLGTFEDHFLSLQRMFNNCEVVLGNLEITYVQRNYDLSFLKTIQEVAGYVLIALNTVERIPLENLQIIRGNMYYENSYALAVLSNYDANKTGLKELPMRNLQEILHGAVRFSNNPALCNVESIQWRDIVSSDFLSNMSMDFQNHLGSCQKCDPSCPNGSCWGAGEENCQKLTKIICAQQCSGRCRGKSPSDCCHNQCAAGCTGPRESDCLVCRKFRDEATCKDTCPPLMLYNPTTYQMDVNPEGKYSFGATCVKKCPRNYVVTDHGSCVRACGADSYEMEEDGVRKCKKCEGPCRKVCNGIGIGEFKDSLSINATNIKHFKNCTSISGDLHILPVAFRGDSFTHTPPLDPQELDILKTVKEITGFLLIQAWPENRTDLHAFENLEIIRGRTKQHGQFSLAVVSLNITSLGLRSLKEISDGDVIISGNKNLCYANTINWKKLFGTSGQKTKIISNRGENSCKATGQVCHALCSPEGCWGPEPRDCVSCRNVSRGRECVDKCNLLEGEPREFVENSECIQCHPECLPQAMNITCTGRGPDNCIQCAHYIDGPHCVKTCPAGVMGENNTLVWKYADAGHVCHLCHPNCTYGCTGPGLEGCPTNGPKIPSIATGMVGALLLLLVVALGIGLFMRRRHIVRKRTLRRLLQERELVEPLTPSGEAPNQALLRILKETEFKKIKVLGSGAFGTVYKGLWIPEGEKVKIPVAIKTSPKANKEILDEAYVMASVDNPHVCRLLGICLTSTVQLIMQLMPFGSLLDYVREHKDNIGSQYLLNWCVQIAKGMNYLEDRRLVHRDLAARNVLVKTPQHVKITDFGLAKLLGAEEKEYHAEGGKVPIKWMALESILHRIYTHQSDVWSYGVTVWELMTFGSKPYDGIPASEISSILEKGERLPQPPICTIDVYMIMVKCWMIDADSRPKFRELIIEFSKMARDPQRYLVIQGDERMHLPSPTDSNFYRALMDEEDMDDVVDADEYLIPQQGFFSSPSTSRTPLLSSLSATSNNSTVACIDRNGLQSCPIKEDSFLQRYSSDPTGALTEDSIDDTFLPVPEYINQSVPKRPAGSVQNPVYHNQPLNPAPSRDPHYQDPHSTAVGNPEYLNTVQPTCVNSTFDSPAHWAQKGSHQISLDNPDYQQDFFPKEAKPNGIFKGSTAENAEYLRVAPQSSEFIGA
"IC50 (EGFR del19/C797S; IC50 del19/C797S, 100 μM ATP) [nM]",IC50 (EGFR del19/C797S; [1]) [nM],"IC50 (EGFR L858R/T790M/C797S; IC50 L858R/T790M/C797S, 100 μM ATP) [nM]",IC50 (EGFR L858R/T790M/C797S; [2]) [nM],"IC50 (EGFR del19/T790M/C797S; IC50 del19/T790M/C797S, 100 μM ATP) [nM]",IC50 (EGFR del19/T790M/C797S; [3]) [nM],"IC50 (EGFR L858R/C797S; IC50 L858R/C797S, 100 μM ATP) [nM]",IC50 (EGFR L858R/C797S; [4]) [nM],"IC50 (EGFR wildtype (WT); IC50 WT, 100 μM ATP) [nM]",IC50 (EGFR wildtype (WT); [5]) [nM],IC50 (EGFR del19/C797S; [6]) [nM],IC50 (EGFR del19/C797S; [7]) [nM],IC50 (EGFR L858R/T790M/C797S; [8]) [nM],IC50 (EGFR L858R/T790M/C797S; [9]) [nM],IC50 (EGFR del19/T790M/C797S; [10]) [nM],IC50 (EGFR del19/T790M/C797S; [11]) [nM],IC50 (EGFR L858R/C797S; [12]) [nM],IC50 (EGFR L858R/C797S; [13]) [nM],IC50 (EGFR wildtype (WT); [14]) [nM],IC50 (EGFR wildtype (WT); [15]) [nM],SMILES
23.9,16.7,3.1,0.3,1.7,1.2,518,14.4,> 10000,254,,,,,,,,,,,"C[C@]1(CO)C[C@@H](Nc2cc(Nc3ccnc(-c4cnn(S(=O)(=O)C5CC5)c4)n3)ncc2-c2ccn(C(F)F)n2)C1 [Example 378, ((1s,3s)-3-((2-((2-(1-(Cyclopropylsulfonyl)-1H-pyrazol-4-yl)pyrimidin-4-yl)amino)-5-(1-(difluoromethyl)-1H-pyrazol-3-yl)pyridin-4-yl)amino)-1-methylcyclobutyl)methanol]"
,,,,,,,,,,0.5,0.2,0.2,0.1,0.3,0.2,1.9,0.2,617,1.1,"O=S(=O)(C1CC1)n1cc(-c2nccc(Nc3cc(N[C@H]4CC[C@@H](NCCF)CC4)c(-c4cc5n(n4)CCCC5)cn3)n2)cn1 [Example 62, N^2-(2-(1-(Cyclopropylsulfonyl)-1H-pyrazol-4-yl)pyrimidin-4-yl)-N^4-((1s,4s)-4-((2-fluoroethyl)amino)cyclohexyl)-5-(4,5,6,7-tetrahydropyrazolo[1,5-a]pyridin-2-yl)pyridine-2,4-diamine]"
,,,,,,,,,,,0.4,,0.2,,0.7,,0.1,,0.3,"CN(C)CC[C@H]1CC[C@@H](Nc2cc(Nc3ccnc(-c4cnn(S(=O)(=O)C5CC5)c4)n3)ncc2-c2ccn(CC(F)F)n2)CC1 [Example 251, N^2-(2-(1-(Cyclopropylsulfonyl)-1H-pyrazol-4-yl)pyrimidin-4-yl)-5-(1-(2,2-difluoroethyl)-1H-pyrazol-3-yl)-N^4-((1s,4s)-4-(2-(dimethylamino)ethyl)cyclohexyl)pyridine-2,4-diamine]"
,,,,,,,,,,,333,,0.9,,3.9,,107,,16.7,"CC(C)(CO)Cn1cc(-c2nccc(Nc3cc(N[C@H]4CC[C@@](C)(O)CC4)c(-c4ccn(C(F)F)n4)cn3)n2)cn1 [Example 173, (1s,4s)-4-((5-(1-(Difluoromethyl)-1H-pyrazol-3-yl)-2-((2-(1-(3-hydroxy-2,2-dimethylpropyl)-1H-pyrazol-4-yl)pyrimidin-4-yl)amino)pyridin-4-yl)amino)-1-methylcyclohexan-1-ol]"
,,,,,,,,,,7.6,2.3,2,0.3,0.5,0.5,174,4.5,> 10000,36.3,"O=S(=O)(C1CC1)n1cc(-c2nccc(Nc3cc(NC4CC(O)C4)c(-c4ccn(C(F)F)n4)cn3)n2)cn1 (centres unmarked) [Example 40, 3-((2-((2-(1-(Cyclopropylsulfonyl)-1H-pyrazol-4-yl)pyrimidin-4-yl)amino)-5-(1-(difluoromethyl)-1H-pyrazol-3-yl)pyridin-4-yl)amino)cyclobutan-1-ol]"
,,,,,,,,,,,2050,,11.7,,19.2,,291,,327,"CC(=O)N1CC=C(c2nccc(Nc3cc(N[C@H]4CC[C@@](C)(O)CC4)c(-c4ccn(C(F)F)n4)cn3)n2)CC1 [Example 159, 1-(4-(4-((5-(1-(Difluoromethyl)-1H-pyrazol-3-yl)-4-(((1s,4s)-4-hydroxy-4-methylcyclohexyl)amino)pyridin-2-yl)amino)pyrimidin-2-yl)-3,6-dihydropyridin-1(2H)-yl)ethan-1-one]"
,,,,,,,,,,159,89.1,6.2,2,3.5,2.7,690,22.7,> 10000,418,"O=S(=O)(C1CC1)n1cc(-c2nccc(Nc3cc(N[C@@H]4CCC[C@H](O)C4)c(-c4csc(C(F)(F)F)n4)cn3)n2)cn1 [Example 96, (1S,3R)-3-((2-((2-(1-(Cyclopropylsulfonyl)-1H-pyrazol-4-yl)pyrimidin-4-yl)amino)-5-(2-(trifluoromethyl)thiazol-4-yl)pyridin-4-yl)amino)cyclohexan-1-ol]"
,,,,,,,,,,44.4,,6.7,,2.1,,962,,> 10000,,"Cn1ccc(-c2cnc(Nc3ccnc(-c4cnn(S(=O)(=O)C5CC5)c4)n3)cc2N[C@H]2CC[C@H](CO)OC2)n1 [Example 227, ((2R,5S)-5-((2-((2-(1-(Cyclopropylsulfonyl)-1H-pyrazol-4-yl)pyrimidin-4-yl)amino)-5-(1-methyl-1H-pyrazol-3-yl)pyridin-4-yl)amino)tetrahydro-2H-pyran-2-yl)methanol]"
,,,,,,,,,,35.1,15.7,3.9,1.1,2.2,2.6,63.3,1.6,> 10000,65.3,"CN(C)S(=O)(=O)n1cc(-c2nccc(Nc3cc(N[C@H]4CC[C@@](C)(O)CC4)c(-c4cc(C(F)(F)F)n(C)n4)cn3)n2)cn1 [Example 330, 4-(4-((4-(((1s,4s)-4-Hydroxy-4-methylcyclohexyl)amino)-5-(1-methyl-5-(trifluoromethyl)-1H-pyrazol-3-yl)pyridin-2-yl)amino)pyrimidin-2-yl)-N,N-dimethyl-1H-pyrazole-1-sulfonamide]"
,,,,,,,,,,114,,33.8,,17.6,,37.5,,> 10000,486,"CC(C)(O)Cn1cc(-c2nccc(Nc3cc(N[C@H]4CC[C@@](C)(O)CC4)c(-c4ccn(C(F)F)n4)cn3)n2)cn1 [Example 142, (1s,4s)-4-((5-(1-(Difluoromethyl)-1H-pyrazol-3-yl)-2-((2-(1-(2-hydroxy-2-methylpropyl)-1H-pyrazol-4-yl)pyrimidin-4-yl)amino)pyridin-4-yl)amino)-1-methylcyclohexan-1-ol]"
,,,,,,,,,,,26.8,,0.8,,0.8,,116,,781,"Cc1nn(-c2cnc(Nc3ccnc(-c4cnn(S(=O)(=O)C5CC5)c4)n3)cc2N[C@H]2CC[C@@](C)(O)CC2)cc1C(F)(F)F [Example 182, (1s,4s)-4-((2-((2-(1-(Cyclopropylsulfonyl)-1H-pyrazol-4-yl)pyrimidin-4-yl)amino)-5-(3-methyl-4-(trifluoromethyl)-1H-pyrazol-1-yl)pyridin-4-yl)amino)-1-methylcyclohexan-1-ol]"
,,,,,,,,,,0.2,,0.2,,0.2,,0.4,,133,,"CN(C)CCCn1ccc(-c2cnc(Nc3ccnc(-c4cnn(S(=O)(=O)C5CC5)c4)n3)cc2N[C@H]2CC[C@@](C)(O)CC2)n1 [Example 288, (1s,4s)-4-((2-((2-(1-(Cyclopropylsulfonyl)-1H-pyrazol-4-yl)pyrimidin-4-yl)amino)-5-(1-(3-(dimethylamino)propyl)-1H-pyrazol-3-yl)pyridin-4-yl)amino)-1-methylcyclohexan-1-ol]"
,,,,,,,,,,62.7,95.7,5.5,0.8,1.1,0.9,598,21.8,> 10000,241,"O=S(=O)(C1CC1)n1cc(-c2nccc(Nc3cc(NC4CCCCC4O)c(-c4ccn(C(F)F)n4)cn3)n2)cn1 (centres unmarked) [Example 28, 2-((2-((2-(1-(Cyclopropylsulfonyl)-1H-pyrazol-4-yl)pyrimidin-4-yl)amino)-5-(1-(difluoromethyl)-1H-pyrazol-3-yl)pyridin-4-yl)amino)cyclohexan-1-ol]"
,241,,0.6,,0.3,,25.9,,1050,,,,,,,,,,,"C[C@]1(O)CC[C@@H](Nc2cc(Nc3ccnc(-c4cnn(S(=O)(=O)C5CC5)c4)n3)nnc2-c2ccn(CC(F)(F)F)n2)CC1 [Example 374, (1s,4s)-4-((6-((2-(1-(Cyclopropylsulfonyl)-1H-pyrazol-4-yl)pyrimidin-4-yl)amino)-3-(1-(2,2,2-trifluoroethyl)-1H-pyrazol-3-yl)pyridazin-4-yl)amino)-1-methylcyclohexan-1-ol]"
